Series [1] is described as follows: Glucuronidation of 3-OH-8-MBaP in incubations with rat liver S9. Type of series: in vitro ADME. To be noted: rat, pooled rat liver S9, pH 7.4, rat liver S9, UDPGA. As for the experimental part:
(§1) The conjugation of 3-OH-8-MBaP with glucuronic acid was studied in incubations with rat liver S9 in vitro. The incubation time and S9 protein concentration were optimized to ascertain linearity of glucuronidation with time and the amount of S9 protein. The incubation was performed with a 200 µL mixture in glass vials, and consisted of (final concentrations) […] Tris buffer (pH 7.4), 0.1 mg/ml pooled rat liver S9, 3 mM UDPGA, 5 mM MgCl2, 0.025 mg/ml alamethicin, and 0–100 µM 3-OH-8-MBaP. No metabolites were formed in control incubations without either rat liver S9 or co-factor UDPGA. The final concentration of substrate vehicle (DMSO) in the incubation mixture was 1% (v/v). The incubation mixtures without substrate were pre-incubated at 37 °C for 1 min. The reaction was initiated by adding substrate to the incubation mixtures that were subsequently incubated at 37 °C for 20 min, after which the reaction was terminated by adding 100 µL ice-cold acetonitrile. The incubation mixture was subsequently centrifuged at 3717g at 4 °C for 5 min. The supernatant was collected for ultra-performance liquid chromatography (UPLC) analysis.
(§2) An Acquity UPLC system with a photodiode array (PDA) detector was used to quantify the metabolites formed in the glucuronidation and sulfation incubations. The supernatants of the incubation samples were injected onto an Acquity UPLC BEH® C18 column ([…], 1.7 µm, Waters, Milford, MA). The total running time per sample was 22 min with a flow rate of 0.6 ml/min. The temperature of column and auto sampler was 40 °C and 10 °C, respectively. The injection volume was 3.5 µL and the detection wavelength ranged from 190 to 400 nm. Two eluents were used including A (nanopure with 0.1% (v/v) TFA) and B (acetonitrile with 0.1% (v/v) TFA). The gradient elution started from 90% A and 10% B applied from 0.0 min to 0.5 min, which was changed to 10% A and 90% B from 0.5 to 15.5 min and then kept at 10% A and 90% B from 15.5 min to 18.5 min, and changed back to 90% A and 10% B from 18.5 to 22.0 min. Metabolites were quantified as previously described in our study on microsomal metabolism of BaP and several of its methyl substituted analogs (Wang et al [2022]).
(§3) The concentration of the glucuronidated and sulfated metabolites was further used to calculate the velocity of the enzymatic reaction expressed in nmol/min/mg S9 protein. The curve reflecting the substrate (3-OH-8-MBaP) concentration-dependent velocity of the metabolite formation was fitted by the Michaelis–Menten equation using GraphPad Prism 5 (California, USA). The kinetic constants derived included the Km (µM) and Vmax (nmol/min/mg S9 protein).
(§4) 3-OH-8-MBaP was subsequently modeled to be conjugated by glucuronidation and sulfation in the liver. The kinetic constants for these conjugation reactions were determined in incubation experiments described in Sect. […] The scaling factors from rat liver microsomes and rat liver S9 to the whole liver were 45 mg microsomal protein/g liver and 125 mg S9 protein/g liver, respectively (Houston and Galetin [2008]).

For the next series, the system named is rat liver S9. Described as above. Type of series: in vitro ADME. The method, then: as §1, §2, §3, §4
Series [2] in a line: In vivo kinetic study, intravenous 50 mg/kg bw, blood concentrations. As to conditions: rat, 50 mg/kg bw parent PAH. The method, then: Six male Sprague–Dawley rats at the age of 8–9 weeks weighing 286-305g/rat were obtained from Charles River Inc (Beijing, China). The rats were maintained in plastic cages in two groups of three in a temperature-controlled (ranging from 20 °C to 25 °C) and humidity-controlled (ranging from 40–70%) environment on a 12-h light–dark cycle. The animal bedding was corncob and used after autoclaving. The bedding and the cages were changed twice a week. The number of animals was restricted to 3 per dose group and control blood samples were collected before dosing. Feeding and living conditions followed the Chinese Laboratory Animal-Requirement of environment and housing facilities (GB14925-2010). The present rat study was approved by Institutional Animal Care and Use Committee (IACUC-BF202305006).
All animals were fasted 8 h before intravenous injection and resumed feed supply 4 h after dosing.
After administration, blood samples (0.1–0.2 ml blood volume) were taken from the medial canthus venous plexus of the animal and anticoagulated with sodium heparin. Prior to orbital venipuncture and blood collection, the animals were anesthetized by CO2 inhalation (70% CO2 + 30% O2). Blood was sampled at 1 min, 0.5, 1, 2, 4, 8, 12, 24, 32, 48, and 72 h post-dosing. After collection, blood samples were frozen and were stored at −20 °C until analysis. All animals were euthanized with 100% CO2 after the experiment.
Aliquots of 100 µL of blood samples were transferred into centrifuge tubes and 700 µL sodium acetate buffer (0.1M, pH 5.0) and 6 µL β-glucuronidase-arylsulfatase were added. The samples were incubated for 1 h at 37 °C and subsequently extracted twice with 800 µL ethyl acetate saturated with water. The samples were shaken for 30 min and centrifuged 5 min at 2000 g (4 °C). The upper organic phase was transferred to a centrifuge tube and evaporated under a gentle stream of nitrogen at 40 ℃ in a water bath. The residues were re-dissolved with 200 µL ascorbic acid:methanol (1:100). […]

SMILES strings stand for the structures. Several values for one entry are separate records, joined by “and”; a condition that tells them apart may be missing. Identical values can stand only once.

As for `Cc1ccc2c(c1)cc1ccc3c(O)ccc4ccc2c1c43` [3-OH-8-MBaP, 3-Hydroxy-8-methyl-benzo[a]pyrene], in series [1], the Km at 20 min is 16 µM. Besides, in the series on rat liver S9 (rat liver S9, UDPGA), the Km was 15.6 µM; the “Vmax, glucuronidation of 3-OH-8-MBaP” value is 6.92 nmol/min/mg S9 protein and 6.92^e nmol/min/mg S9 protein. Moreover, the “Scaled Vmax, glucuronidation of 3-OH-8-MBaP” value in the series on rat liver S9 (scaled to whole liver, liver weight 9.1 g) was 470 µmol/h/liver. The “Scaled Vmax, glucuronidation of 3-OH-8-MBaP” value with rat liver S9 (scaled with 125 mg S9 protein/g liver) came out at 51.9 µmol/h/g liver. Also, in series [2], the “Observed in vivo Cmax relative to the model prediction (lower)” value is listed as 3.4 fold and the “Observed in vivo blood concentration compared with that of 3-OHBaP” value is recorded as “comparable”.

These data come from paper PMC12454603 (Archives of Toxicology, 2025).
